Experimental data published in US20070203177A1, “Forms of dolasetron mesylate and processes for their preparation” (priority 2006, published 2007).

Assay: Heat transformations of Dolasetron mesylate forms (solid-state form after heating)
Type: physicochemical

SMILES: CS(=O)(=O)O.O=C(OC1C[C@@H]2CC3C[C@H](C1)N2CC3=O)c1c[nH]c2ccccc12 (stereo partly drawn) [Form V, Dolasetron mesylate]
- HEAT TRANSFORMATION RESULT (heated at 160 °C, 60 min., listed as V): XII

SMILES: O=C(OC1CC2CC3CC(C1)N2CC3=O)c1c[nH]c2ccccc12 (stereo not drawn) [Form II, (2α,6α,8α,9αβ)-octahydro-3-oxo-2,6-methano-2H-quinolizin-8-yl-1H-indole-3-carboxylate monomethanesulfonate monohydrate, reference compound]
- HEAT TRANSFORMATION RESULT (second TEMP./TIME) (after 160 °C, 30 min, then 160, 30 min): VII > III

SMILES: CS(=O)(=O)O.O=C(OC1C[C@@H]2CC3C[C@H](C1)N2CC3=O)c1c[nH]c2ccccc12 (stereo partly drawn) [Form I, Dolasetron Mesylate]
- HEAT TRANSFORMATION RESULT (heated at 190 °C, 30 min.): Amorphous > III

SMILES: CS(=O)(=O)O.O=C(OC1C[C@@H]2CC3C[C@H](C1)N2CC3=O)c1c[nH]c2ccccc12 (stereo partly drawn) [Form IV, Dolasetron mesylate]
- HEAT TRANSFORMATION RESULT (heated at 160 °C, 60 min., listed as IV): VII + IV

SMILES: CS(=O)(=O)O.O=C(OC1C[C@@H]2CC3C[C@H](C1)N2CC3=O)c1c[nH]c2ccccc12 (stereo partly drawn) [Form VIII, Dolasetron mesylate]
- HEAT TRANSFORMATION RESULT (heated at 160 °C, 30 min): XII
- HEAT TRANSFORMATION RESULT (heated at 160 °C, 60 min., listed as VIII): XII
